Assay results published in patent US9458194B2, “Compounds useful in the treatment and/or care of the skin and their cosmetic or pharmaceutical compositions” (Lubrizol Advanced Materials, Inc., priority 2013, dated 2016).
Several values for one entry are separate records, joined by “and”; a condition that tells them apart may be missing. Equal entries are not always repeated.

Key:
Format in all cases: cell-based
[1] = tested on: elastin; assay: Elastin synthesis in human dermal fibroblasts (Fastin Elastin Assay); conditions: 0.01 μg/ml, 48 hours, vs negative control
Protocol: Stimulation of elastin synthesis induced by Ac-L-Asp-L-Val-L-Lys-L-Tyr-OH was evaluated by means of a quantitative method of staining, Fastin Elastin Assay (Tebu-Bio). Human dermal fibroblasts were trypsinized and seeded at a density of 7×10^4 cells/well in 6-well plates. After 72 hours of incubation at 37° C., 5% CO2, with a humidified atmosphere, a new medium was added with 0.01 μg/mL Ac-L-Asp-L-Val-L-Lys-L-Tyr-OH. Untreated cells were used as negative controls and cells treated with TGF-1β (Peprotech) were used as positive controls. The cells were incubated for an additional 48 hours at 37° C., 5% CO2, with humidified atmosphere. Subsequently, the elastin was solubilized and extracted, for which the cells were washed twice with PBS (Sigma) and a solution was added to uncouple the cells (Cell Dissociation Solution, Sigma). The suspension of cells was transferred to centrifuge tubes, 1 M Oxalic Acid was added provided by the kit and they were incubated at 100° C. for 1 hour. Once the elastin became soluble, a calibration curve was prepared with the elastin provided with the kit. From that point, the samples and dilutions of the calibration curve were processed following the kit instructions to isolate and stain the elastin. Lastly, the dye was extracted and the absorbency reading was carried out at a wave length of 540 nm in a TECAN GENios spectrophotometric reader.

[2] = tested on: type-I collagen; assay: Type-I collagen synthesis in human dermal fibroblasts (ELISA); conditions: 0.01 μg/ml, 48 hours, vs negative control
Protocol: Stimulation of type-I collagen synthesis induced by cosmetic active ingredients was assessed by means of an ELISA (Enzyme-Linked Immunosorbent Assay) method.
Human dermal fibroblasts were trypsinized and seeded at a density of 5×10^4 cells/well in 48-well plates. After 24 hours of incubation at 37° C., 5% CO2, with a humidified atmosphere, a new medium was added with 0.01 μg/mL Ac-L-Asp-L-Val-L-Lys-L-Tyr-OH. Untreated cells were used as negative controls. The cells were incubated for an additional 48 hours at 37° C., 5% CO2, with humidified atmosphere. Subsequently, the medium was collected from each well to be analyzed by ELISA. A calibration curve with type-I collagen was prepared (Sigma) and the dilutions of this calibration curve were transferred to 96-well plates together with the mediums collected from the cells. The plates were left at 4° C. in a humid atmosphere for one night. Next the wells were washed three times with a washing solution prepared with PBS at 0.05% of Tween-20 (Sigma) and then any non-specific binding of the primary antibody with a solution of PBS at 3% BSA (sigma) was blocked. […] The reaction was stopped adding a solution of H2SO4 3 M and the absorbency reading was carried out at a wave length of 490 nm in a TECAN GENios spectrophotometric reader. […]

[3] = tested on: human fibulin-5 gene promoter; assay: Luminescence assay of human fibulin-5 gene promoter activation (Firefly luciferase); conditions: 16-24 hours
Protocol: The effect of the compounds of the invention on the activity of the fibulin-5 and LOXL1 promoters was studied and compared to the levels of basal expression of the untreated cells (negative control) and with the effect of Interleukin-1β (IL-1β) in the same conditions.
Cells from an epithelial cell line doubly transfected with fibulin-5 and LOXL1 human promoters in which the luciferase gene is under the regulatory control of said promoters (4×10^4 cells/well) were seeded in a white plate and in a 96-well transparent plate, both treated with polylysine, and were incubated in Dulbecco's Modified Eagle Medium (DMEM-Glutamax™), with 10% of FBS, 1% Penicillin-Streptomycin (P/S), 1 mg/ml of Geneticin® (G418) and […] at 37° C. in at atmosphere with 5% CO2. After the incubation, the cells were incubated for 6 hours at 37° C. in at atmosphere with 5% CO2 with DMEM without serum. Then, this medium was removed and the cells were treated with different compounds at 0.1 mg/ml, 0.5 mg/ml, 1 mg/ml or 2 mg/mL in DMEM/1% FBS for 16-24 hours. As a positive control to activate the fibulin-5 and LOXL1 promoters 10 ng/ml of IL-1β were used and as a negative control untreated cells were used, just with DMEM/1% FBS. The incubations and treatments were carried out in parallel in the white plate and the transparent plate and in triplicate for each condition. After the treatment, the relative light units per second were determined (RLU/s) in the white plate by means of consecutive quantification of the activities of Firefly luciferase (fibulin-5 promoter) and Renilla luciferase (LOXL1 promoter), and the number of total cells/well in the transparent plate by means of staining with Crystal Violet (CV). To determine the Firefly and Renilla luciferase activities the Dual-Glo Luciferase Assay System kit by Promega was used. The cells were briefly lysed and the Firefly luciferase substrate was added. After incubating for 10 min at 25° C., the RLU/s were quantified by luminescence reader (Lumistar-BMG). Then the Firefly signal was extinguished and the Renilla luciferase substrate was added. After incubating for 5 min at 25° C., the RLU/s were quantified by the same luminescence reader. With regard to the determination of the total number of cells by Crystal Violet, the CV dyes the DNA of the cells and the quantity of dye taken by the cells can be measured in an absorbency reader at 630 nm (Multiskan Ascent). The color obtained is directly proportional to the total number of cells per well. The cells were briefly incubated with 0.05% CV plus 4% Formalin for 20 minutes and after several washes with Milli-Q water, the cells were left to dry for 1-2 hours and then 0.1 M of HCl was added for its immediate reading. The RLU/s of the luciferases corresponding to each promoter were normalized by the average of the total number of cells per condition. Three independent assays with 3 measurements per assay were carried out for Ac-L-Asp-L-Val-L-Lys-L-Tyr-OH at 0.1 mg/mL and 1 mg/mL. 1 assay with 3 measurements was carried out for the other compounds and concentrations.
The increase in the activity of the promoters with regard to the levels of expression of the negative control was determined.

Increase in the activity of the human promoter of the FIBULIN 5 gene with regard to the negative control ([3]; 0.1 mg/mL): 7.46% | Increase in the activity of the human promoter of the FIBULIN 5 gene with regard to the negative control ([3]; 1 mg/mL): 19% and 19.40% | Increase in the activity of the human promoter of the FIBULIN 5 gene with regard to the negative control ([3]; 2 mg/mL): 53.20%
Substance: Ac-L-Asp-L-Val-L-Lys-L-Tyr-OH (Ac-DVKY-OH)
INCREASE IN ELASTIN SYNTHESIS [1]: 21.7% | INCREASE IN SYNTHESIS OF TYPE-I COLLAGEN [2]: 47.3%
